Test results reported in article PMC7915026, “Sulfaguanidine Hybrid with Some New Pyridine-2-One Derivatives: Design, Synthesis, and Antimicrobial Activity against Multidrug-Resistant Bacteria as Dual DNA Gyrase and DHFR Inhibitors” (Antibiotics, 2021).
In brackets after ≈: the same amount, converted by molar mass. Like-named read-outs stand apart in the source and are kept apart here.

Legend:
[1] = system: Salmonella typhi (S. typhi ATCC 6539); assay: microbe, parasite or virus in culture; type: cell-based; details: Salmonella enterica
[2] = system: B. subtilis ATCC 6633; assay: MIC and MBC determination; type: cell-based
[3] = system: S. aureus ATCC 29213; assay: MIC and MBC determination; type: cell-based; details: Staphylococcus aureus, ATCC29213
[4] = system: S. aureus ATCC 33591; assay: MIC and MBC against multidrug-resistant strains; type: cell-based; details: Staphylococcus aureus, ATCC33591
Excerpt: (§1) Norfloxacin was used as a positive control for the multidrug resistance study.
(§2) The experiment was repeating for three-times.

[5] = system: S. aureus ATCC 43300; assay: MIC and MBC against multidrug-resistant strains; type: cell-based; details: Staphylococcus aureus, ATCC43300
Excerpt: as §1, §2

[6] = system: P. aeruginosa ATCC BAA-2111; assay: MIC and MBC against multidrug-resistant strains; type: cell-based; details: Pseudomonas aeruginosa, ATCCBAA2111
Excerpt: as §1, §2

[7] = system: E. coli ATCC BAA-196; assay: MIC and MBC against multidrug-resistant strains; type: cell-based; details: Escherichia coli, ATCCBAA196
Excerpt: as §1, §2

[8] = system: C. albicans (ATCC 10231); assay: MIC and MFC determination; type: cell-based
[9] = biological target: S. aureus DNA gyrase (Staphylococcus aureus, UniProt P0A0K8+P20831); assay: In vitro DNA gyrase supercoiling enzymatic assay; type: biochemical
[10] = system: S. aureus ATCC 33591; assay: Inhibition zone against multidrug-resistant bacteria; type: cell-based; details: MDRB S. aureus ATCC 33591
Excerpt: as §1
(§3) The antimicrobial activity performed at the bacteriology laboratory, Botany and Microbiology Department, Faculty of Science, Al-Azhar University, Cairo, Egypt. The inhibition zone (IZ) of the tested derivatives expressed as the diameter (mm) according to the agar plate diffusion method.

[11] = system: S. aureus ATCC 43300; assay: as above; type: cell-based; details: MDRB S. aureus ATCC 43300
Excerpt: as §1, §3

[12] = system: P. aeruginosa ATCC BAA-2111; assay: as above; type: cell-based; details: MDRB P. aeruginosa ATCC BAA-2111
Excerpt: as §1, §3

[13] = system: E. coli ATCC BAA-196; assay: as above; type: cell-based; details: MDRB E. coli ATCC BAA-196
Excerpt: as §1, §3

[14] = system: E. coli ATCC 25922; assay: MIC and MBC determination; type: cell-based
[15] = system: neutrophils; assay: In vitro intracellular killing, nitro blue tetrazolium (NBT) reduction assay; type: cell-based
Method: One of the broad methods used for determining immune disorders for patients in hospitals is the NBT test to measure their immune responses. The reduction in NBT dye provides information about the phagocytic and intracellular killing functions of neutrophils, which are important for microbiocidal activity. The most promising derivatives (2a, 2b, 2d, 3a, 8, and 11) were evaluated against in vitro intracellular killing activities using a nitro blue tetrazolium (NBT) reduction assay and the obtained results expressed in percentage (%): increasing the percentage led to an improvement in the killing ability of the neutrophils used as innate immunity.
In vitro intracellular killing activities for the most promising six derivatives 2a, 2b, 2d, 3a, 8, and 11 were performed according to reported methods.

[16] = biological target: E. coli DHFR (dihydrofolate reductase) (Escherichia coli, UniProt P0ABQ4); assay: In vitro DHFR enzymatic assay; type: biochemical
[17] = system: S. aureus ATCC 29213; assay: Inhibition zone, paper disk/agar diffusion; type: cell-based
Excerpt: as §3

[18] = system: E. faecalis ATCC 29212; assay: Inhibition zone, paper disk/agar diffusion; type: cell-based
Excerpt: as §3

[19] = system: F. oxysporum (RCMB 008002); assay: Inhibition zone, paper disk/agar diffusion; type: cell-based; details: Na = no activity
Excerpt: as §3

[20] = system: C. albicans (ATCC 10231); assay: Inhibition zone, paper disk/agar diffusion; type: cell-based; details: Na = no activity
Excerpt: as §3

[21] = system: S. typhi ATCC 6539; assay: Inhibition zone, paper disk/agar diffusion; type: cell-based
Excerpt: as §3

[22] = system: E. coli ATCC 25922; assay: Inhibition zone, paper disk/agar diffusion; type: cell-based
Excerpt: as §3

[23] = system: E. faecalis ATCC 29212; assay: MIC and MBC determination; type: cell-based
[24] = system: P. aeruginosa ATCC 27853; assay: MIC and MBC determination; type: cell-based; details: Pseudomonas aeruginosa, ATCC27853
[25] = system: F. oxysporum (RCMB 008002); assay: MIC and MFC determination; type: cell-based
[26] = system: P. aeruginosa ATCC 27853; assay: Inhibition zone, paper disk/agar diffusion; type: cell-based
Excerpt: as §3

[27] = system: B. subtilis ATCC 6633; assay: Inhibition zone, paper disk/agar diffusion; type: cell-based
Excerpt: as §3

[28] = system: Gram-positive and Gram-negative bacteria; type: cell-based
[29] = Enterococcus faecalis, ATCC29212
[30] = Gram-negative: E. coli, P. aeruginosa, S. typhi

E. coli DHFR (dihydrofolate reductase), sequence (P0ABQ4 whole entry, the tested form may be a part): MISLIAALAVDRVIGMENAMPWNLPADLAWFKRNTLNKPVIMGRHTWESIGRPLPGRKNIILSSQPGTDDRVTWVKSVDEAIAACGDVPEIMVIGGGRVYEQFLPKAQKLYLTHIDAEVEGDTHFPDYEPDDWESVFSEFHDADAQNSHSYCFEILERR
S. aureus DNA gyrase, sequence (P20831 whole entry): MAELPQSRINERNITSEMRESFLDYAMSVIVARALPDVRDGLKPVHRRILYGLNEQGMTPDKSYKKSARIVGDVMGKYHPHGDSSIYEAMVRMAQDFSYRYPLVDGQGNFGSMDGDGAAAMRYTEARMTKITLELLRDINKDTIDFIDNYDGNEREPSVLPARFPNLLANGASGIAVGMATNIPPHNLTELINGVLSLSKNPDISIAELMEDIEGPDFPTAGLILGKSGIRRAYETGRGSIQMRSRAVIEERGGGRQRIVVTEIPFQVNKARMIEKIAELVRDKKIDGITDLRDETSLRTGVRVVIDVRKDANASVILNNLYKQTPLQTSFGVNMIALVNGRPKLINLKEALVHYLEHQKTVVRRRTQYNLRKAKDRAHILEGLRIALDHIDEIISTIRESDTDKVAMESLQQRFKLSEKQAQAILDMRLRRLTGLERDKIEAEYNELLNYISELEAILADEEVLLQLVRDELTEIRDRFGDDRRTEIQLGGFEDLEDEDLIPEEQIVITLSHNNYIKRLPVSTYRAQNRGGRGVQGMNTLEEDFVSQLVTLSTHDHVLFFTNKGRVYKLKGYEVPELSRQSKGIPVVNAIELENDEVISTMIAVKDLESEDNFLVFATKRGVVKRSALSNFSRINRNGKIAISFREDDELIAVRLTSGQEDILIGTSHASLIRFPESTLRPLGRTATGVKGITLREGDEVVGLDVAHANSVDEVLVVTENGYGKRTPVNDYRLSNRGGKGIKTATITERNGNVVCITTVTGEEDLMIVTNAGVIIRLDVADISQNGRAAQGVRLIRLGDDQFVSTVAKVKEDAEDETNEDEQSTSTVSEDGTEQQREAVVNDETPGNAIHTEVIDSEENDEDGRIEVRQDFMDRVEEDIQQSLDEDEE
S. aureus DNA gyrase, sequence (P0A0K8 whole entry): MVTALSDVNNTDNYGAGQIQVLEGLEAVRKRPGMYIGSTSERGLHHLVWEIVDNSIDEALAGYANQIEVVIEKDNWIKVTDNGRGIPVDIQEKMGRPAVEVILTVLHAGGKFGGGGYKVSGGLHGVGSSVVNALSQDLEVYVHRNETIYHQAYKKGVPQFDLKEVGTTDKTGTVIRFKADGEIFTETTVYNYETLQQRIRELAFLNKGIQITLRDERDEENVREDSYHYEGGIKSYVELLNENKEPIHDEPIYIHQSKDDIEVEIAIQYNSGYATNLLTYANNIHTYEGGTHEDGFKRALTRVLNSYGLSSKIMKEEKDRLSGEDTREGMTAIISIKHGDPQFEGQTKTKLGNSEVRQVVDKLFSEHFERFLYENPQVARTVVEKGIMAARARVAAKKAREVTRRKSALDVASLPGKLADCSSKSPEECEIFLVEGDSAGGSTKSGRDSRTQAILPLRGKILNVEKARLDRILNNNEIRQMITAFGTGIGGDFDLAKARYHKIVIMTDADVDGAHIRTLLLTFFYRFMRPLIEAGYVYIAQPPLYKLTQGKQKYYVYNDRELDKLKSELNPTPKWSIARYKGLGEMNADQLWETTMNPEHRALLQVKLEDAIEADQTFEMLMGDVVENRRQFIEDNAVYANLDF

Which results are given for `N#CC(=Cc1ccc(Cl)cc1)C(=O)Nc1ccc(S(=O)(=O)NC(=N)N)cc1` [Compound 2a, N-(4-(N-Carbamimidoylsulfamoyl)phenyl)-3-(4-chlorophenyl)-2-cyanoacrylamide]?
MBC ([1]; Salmonella typhi, read-out: MBC): 139 ± 1.63 µM (≈ 56.2 µg/mL); MIC ([1]; Salmonella typhi, read-out: MIC): 77.4 ± 1.06 µM (≈ 31.2 µg/mL); MBC ([2]; Bacillus subtilis, ATCC6633, B. subtilis, read-out: MBC): 45.8 ± 1.65 µM (≈ 18.5 µg/mL); MIC ([2]; Bacillus subtilis, ATCC6633, B. subtilis, read-out: MIC): 22.9 ± 1.02 µM (≈ 9.25 µg/mL); MBC ([3]; S. aureus, read-out: MBC): 132 ± 1.35 µM (≈ 53.1 µg/mL); MIC ([3]; S. aureus, read-out: MIC): 77.4 ± 2.65 µM (≈ 31.2 µg/mL); MBC [4]: 8.19 ± 0.26 µM (≈ 3.31 µg/mL); MIC [4]: 4.82 ± 0.24 µM (≈ 1.95 µg/mL); MBC [5]: 22 ± 0.65 µM (≈ 8.88 µg/mL); MIC [5]: 11 ± 0.25 µM (≈ 4.44 µg/mL); MBC [6]: 21.3 ± 0.25 µM (≈ 8.61 µg/mL); MIC [6]: 12.9 ± 0.65 µM (≈ 5.2 µg/mL); MBC [7]: 29.4 ± 0.65 µM (≈ 11.9 µg/mL); MIC [7]: 15.5 ± 0.26 µM (≈ 6.25 µg/mL); MFC/MIC [8]: <2; MFC ([8]; Candida albicans, ATCC10231, read-out: MFC): 103.1 ± 1.02 µM (≈ 41.6 µg/mL); MIC ([8]; Candida albicans, ATCC10231, read-out: MIC): 77.4 ± 0.85 µM (≈ 31.2 µg/mL); IC50 [9]: 23.9 ± 1.22 µM; Mean Diameter of Inhibition Zone [10]: 25 ± 0.33 mm; Mean Diameter of Inhibition Zone [11]: 23 ± 0.11 mm; Mean Diameter of Inhibition Zone [12]: 24 ± 0.18 mm; Mean Diameter of Inhibition Zone [13]: 23 ± 0.94 mm; MBC ([14]; Escherichia coli, ATCC25922, E. coli, read-out: MBC): 90.4 ± 0.98 µM (≈ 36.5 µg/mL); MIC ([14]; Escherichia coli, ATCC25922, E. coli, read-out: MIC): 45.8 ± 0.98 µM (≈ 18.5 µg/mL); Intracellular Killing Activity [15]: 82.8 ± 0.37%; IC50 [16]: 5.54 ± 0.33 µM; Mean Diameter of the Inhibition Zone ([17]; S. aureus, Na = no activity): 25 ± 0.77 mm; Mean Diameter of the Inhibition Zone ([18]; E. faecalis, Na = no activity): 23 ± 0.65 mm; Mean Diameter of the Inhibition Zone [19]: 21 ± 0.16 mm; Mean Diameter of the Inhibition Zone [20]: 25 ± 0.33 mm; Mean Diameter of the Inhibition Zone ([21]; S. typhi, Na = no activity): 23 ± 0.65 mm; Mean Diameter of the Inhibition Zone ([22]; E. coli, Na = no activity): 26 ± 0.11 mm; MBC ([23]; Enterococcus faecalis, ATCC29212, E. faecalis, read-out: MBC): 38.7 ± 0.65 µM (≈ 15.6 µg/mL); MIC ([23]; Enterococcus faecalis, ATCC29212, E. faecalis, read-out: MIC): 19.3 ± 0.65 µM (≈ 7.81 µg/mL); MBC ([24]; P. aeruginosa, read-out: MBC): 219.9 ± 1.54 µM (≈ 88.8 µg/mL); MIC ([24]; P. aeruginosa, read-out: MIC): 137 ± 2.12 µM (≈ 55.5 µg/mL); MFC/MIC [25]: <2; MFC ([25]; Fusarium oxysporum, RCMB008002, read-out: MFC): 217 ± 2.98 µM (≈ 87.5 µg/mL); MIC ([25]; Fusarium oxysporum, RCMB008002, read-out: MIC): 138 ± 1.69 µM (≈ 55.5 µg/mL)

What does the source list for `CN(C)[C@@H]1C(O)=C(C(N)=O)C(=O)[C@@]2(O)C(O)=C3C(=O)c4c(O)cccc4[C@@](C)(O)[C@H]3C[C@@H]12` [Tetracycline, tetracycline, reference compound]?
MBC [1]: 98.44 ± 0.87 µM (≈ 43.8 µg/mL); MIC [1]: 70.3 ± 1.06 µM (≈ 31.2 µg/mL); MBC [2]: 91.40 ± 2.89 µM (≈ 40.6 µg/mL); MIC [2]: 70.31 ± 2.65 µM (≈ 31.2 µg/mL); MBC ([2]; Bacillus subtilis, ATCC6633): 91.4 µM (≈ 40.6 µg/mL); MIC ([2]; Bacillus subtilis, ATCC6633): 70.3 µM (≈ 31.2 µg/mL); MBC [3]: 197 ± 3.54 µM (≈ 87.5 µg/mL); MIC [3]: 141 ± 3.21 µM (≈ 62.5 µg/mL); MBC [14]: 42.16 ± 0.92 µM (≈ 18.7 µg/mL); MIC [14]: 35.14 ± 0.87 µM (≈ 15.6 µg/mL); MBC ([14]; Escherichia coli, ATCC25922): 42.2 µM (≈ 18.7 µg/mL); MIC ([14]; Escherichia coli, ATCC25922): 35.1 µM (≈ 15.6 µg/mL); Mean Diameter of the Inhibition Zone [17]: 25 ± 0.11 mm; Mean Diameter of the Inhibition Zone [18]: 22 ± 0.25 mm; Mean Diameter of the Inhibition Zone [21]: 21 ± 0.55 mm; Mean Diameter of the Inhibition Zone [26]: 20 ± 0.5 mm; Mean Diameter of the Inhibition Zone [22]: 23 ± 0.20 mm; Mean Diameter of the Inhibition Zone [27]: 25 ± 0.22 mm; MBC [23]: 210.9 ± 1.78 µM (≈ 93.7 µg/mL); MIC [23]: 140.6 ± 1.98 µM (≈ 62.5 µg/mL); MBC [23, 29]: 211 µM (≈ 93.7 µg/mL); MIC [23, 29]: 141 µM (≈ 62.5 µg/mL); MBC [24]: 197 ± 2.36 µM (≈ 87.5 µg/mL); MIC [24]: 141 ± 2.85 µM (≈ 62.5 µg/mL); MBC range [28, 30]: 42.16 to 196.89 µM; MIC range [28, 30]: 35.14 to 140.6 µM; MBC range ([28]; Gram-positive bacteria): 91.40 to 210.9 µM; MIC range ([28]; Gram-positive bacteria): 70.31 to 140.63 µM
